Results taken from US10675360B2 (MADRIGAL PHARMACEUTICALS, INC., priority 2014, dated 2020).
Where two headings read alike, the source gives them in different places.

What was measured:
H 3211 NSLC cells = test: IC50 of continuous and pulsed exposure to SDC-TRAPs; format: cell-based
[1] = Stability in mouse plasma; format: in vitro ADME; details: 1 h
Experimental: SDC-TRAP-0022 and SDC-TRAP-0028 were incubated in human and mouse plasma for 2 h at 37° C. and assayed for integrity at 0.25, 0.5, 1 and 2 h. The values reported below are the remaining of the parent compound at the end of the 2 h incubation period.
This solution was used to precipitate all plasma samples in the study. 200 μL was pipetted into a 96 deepwell plate over dry ice. 10 μL of 1 mM stock in DMSO was added to a 1.5 mL microfuge tube, then 990 μL of plasma. Samples were mixed by vortex, then 50 μL of each sample was added in triplicate to a 96-well plate containing internal standard solution. This was designated the 0 hour time point sample. 250 μL of the remaining plasma sample was added to each of four 96 deepwell plates—one per time point. Samples were incubated at 37° C. with gentle shaking for 0.25, 0.5, and 1 hour. After each time point, one plate of each sample was removed from the shaker and placed on wet ice for approximately 2 minutes. 50 μL plasma aliquots (in triplicate) were added to the deepwell plate containing internal standard solution. After the last time point was extracted, the 96 deepwell plate was vortexed, then centrifuged at 2-8° C. 150 μL of supernatant was collected and 25 μL of water was added. Samples were mixed and analyzed by LC-MS/MS.
The stability of seven SDC-TRAP types in mouse plasma was measured as follows. 990 μL mouse plasma aliquots from a common stock were spiked with 10 μL of 1 mM stock of one of seven SDC-TRAP samples identified in the table below. Each sample was mixed and divided into 250 μL aliquots, each representing time points 0, 15 minutes, 30 minutes or 1 hour. At the prescribed time point, 3×50 μL samples were each mixed with 200 μL of methanol containing internal standard and held on dry ice until all time point samples were extracted. The samples collectively were vortex mixed for 1.5 minutes at 1500 rpm, then centrifuged at 4400 rpm for 10 minutes at 8° C.

| Compound | % Remaining ([1]; mouse plasma, 37° C.) [%] | also measured |
| --- | --- | --- |
| CNCCn1ccc2cc(-n3c(O)nnc3-c3cc(C(C)C)c(O)cc3O)ccc21 [SDC-TRAP-0004] | – | IC50 (H 3211 NSLC cells; read-out: IC50, 1 h-pulse/71 h-compound free, H 3211 NSLC cells, 7.5 × 10^3 cells/well, 1st of 2 columns): 624 nM; IC50 (H 3211 NSLC cells; read-out: IC50, 1 h-pulse/71 h-compound free, H 3211 NSLC cells, 7.5 × 10^3 cells/well, 2nd of 2 columns): 1750 nM; IC50 (H 3211 NSLC cells; read-out: IC50, 72 h-continuous, H 3211 NSLC cells, 7.5 × 10^3 cells/well, 1st of 3 columns): 22 nM; IC50 (H 3211 NSLC cells; read-out: IC50, 72 h-continuous, H 3211 NSLC cells, 7.5 × 10^3 cells/well, 2nd of 3 columns): 60 nM; IC50 (H 3211 NSLC cells; read-out: IC50, 72 h-continuous, H 3211 NSLC cells, 7.5 × 10^3 cells/well, 3rd of 3 columns): 40 nM |
| CC(C)c1cc(-c2nnc(O)n2-c2ccc3c(ccn3CCOCCNC(=O)CCCC(=O)Nc3cccc4c3CN(C3CCC(=O)NC3=O)C4=O)c2)c(O)cc1O (stereo not drawn) [SDC-TRAP-0015, N1-(2-(2-(5-(3-(2,4-dihydroxy-5-isopropylphenyl)-5-hydroxy-4H-1,2,4-triazol-4-yl)-1H-indol-1-yl)ethoxy)ethyl)-N5-(2-(2,6-dioxopiperidin-3-yl)-1-oxoisoindolin-4-yl)glutaramide] | – | IC50 (H 3211 NSLC cells; 1 h, read-out: IC50, 1 h-pulse/71 h-compound free, H 3211 NSLC cells, 7.5 × 10^3 cells/well, 1st of 2 columns): > 3000 nM; IC50 (H 3211 NSLC cells; 1 h, read-out: IC50, 1 h-pulse/71 h-compound free, H 3211 NSLC cells, 7.5 × 10^3 cells/well, 2nd of 2 columns): > 3000 nM; IC50 (H 3211 NSLC cells; 72 h, read-out: IC50, 72 h-continuous, H 3211 NSLC cells, 7.5 × 10^3 cells/well, 2nd of 3 columns): 2230 nM |
| CCNC(=O)c1nnc(-c2cc(C(C)C)c(O)cc2O)n1-c1ccc(CN2CCC(C(=O)N3CCN(C(=O)Oc4ccc5nc6c(c(CC)c5c4)Cn4c-6cc5c(c4=O)COC(=O)C5(O)CC)C(C)C3)CC2)cc1 (stereo not drawn) [SDC-TRAP-0185, 4,11-diethyl-4-hydroxy-3,14-dioxo-3,4,12,14-tetrahydro-1H-pyrano[3′,4′:6,7]indolizino[1,2-b]quinolin-9-yl 4-(1-(4-(3-(2,4-dihydroxy-5-isopropylphenyl)-5-(ethylcarbamoyl)-4H-1,2,4-triazol-4-yl)benzyl)piperidine-4-carbonyl)-2-methylpiperazine-1-carboxylate] | 68.1 | – |
| CCc1c2c(nc3ccc(OC(=O)N4CCC(Cn5ccc6cc(-n7c(O)nnc7-c7cc(C(C)C)c(O)cc7O)ccc65)CC4)cc13)-c1cc3c(c(=O)n1C2)COC(=O)C3(O)CC (stereo not drawn) [SDC-TRAP-0186] | 57.9 | – |
| CCNC(=O)c1nnc(-c2cc(C(C)C)c(O)cc2O)n1-c1ccc(OC2CCN(C(=O)Oc3c(C)cc(COC(=O)Nc4cccc5c4CN(C4CCC(=O)NC4=O)C5=O)cc3C)CC2)cc1 (stereo not drawn) [SDC-TRAP-0187, 4-((((2-(2,6-dioxopiperidin-3-yl)-1-oxoisoindolin-4-yl)carbamoyl)oxy)methyl)-2,6-dimethylphenyl 4-(4-(3-(2,4-dihydroxy-5-isopropylphenyl)-5-(ethylcarbamoyl)-4H-1,2,4-triazol-4-yl)phenoxy)piperidine-1-carboxylate] | – | % Remaining ([1]; mouse, plasma, 10 μM): 102% |
| CCNC(=O)c1nnc(-c2cc(C(C)C)c(O)cc2O)n1-c1ccc(CN2CCC(C(=O)N3CCN(c4cc(C)c(OC(=O)Nc5cccc6c5CN(C5CCC(=O)NC5=O)C6=O)c(C)c4)CC3)CC2)cc1 (stereo not drawn) [SDC-TRAP-0195, 4-(4-(1-(4-(3-(2,4-dihydroxy-5-isopropylphenyl)-5-(ethylcarbamoyl)-4H-1,2,4-triazol-4-yl)benzyl)piperidine-4-carbonyl)piperazin-1-yl)-2,6-dimethylphenyl (2-(2,6-dioxopiperidin-3-yl)-1-oxoisoindolin-4-yl)carbamate] | – | % Remaining ([1]; mouse, plasma, 10 μM): 98.4% |
| CCNC(=O)c1nnc(-c2cc(C(C)C)c(O)cc2O)n1-c1ccc2c(c1)CN(Cc1cc(OC)c(OC(=O)Nc3cccc4c3CN(C3CCC(=O)NC3=O)C4=O)c(OC)c1)C2 (stereo not drawn) [SDC-TRAP-0196] | – | % Remaining ([1]; mouse, plasma, 10 μM): 66.2% |
| CCNC(=O)c1nnc(-c2cc(C(C)C)c(O)cc2O)n1-c1ccc(C(=O)N2CCN(C(=O)COC(=O)OC3(CC)C(=O)OCc4c3cc3n(c4=O)Cc4c-3nc3ccc(O)cc3c4CC)CC2)cc1 (stereo not drawn) [SDC-TRAP-0202, 4,11-diethyl-9-hydroxy-3,14-dioxo-3,4,12,14-tetrahydro-1H-pyrano[3′,4′:6,7]indolizino[1,2-b]quinolin-4-yl (2-(4-(4-(3-(2,4-dihydroxy-5-isopropylphenyl)-5-(ethylcarbamoyl)-4H-1,2,4-triazol-4-yl)benzoyl)piperazin-1-yl)-2-oxoethyl) carbonate] | 21.2 | – |
| CCNC(=O)c1nnc(-c2cc(C(C)C)c(O)cc2O)n1-c1ccc(Oc2ccc(C(=O)N3CCC(OC(=O)OC4(CC)C(=O)OCc5c4cc4n(c5=O)Cc5c-4nc4ccc(O)cc4c5CC)CC3)cc2)cc1 (stereo not drawn) [SDC-TRAP-0203, 4,11-Diethyl-9-hydroxy-3,14-dioxo-3,4,12,14-tetrahydro-1H-pyrano[3′,4′:6,7]indolizino[1,2-b]quinolin-4-yl (1-(4-(4-(3-(2,4-dihydroxy-5-isopropylphenyl)-5-(ethylcarbamoyl)-4H-1,2,4-triazol-4-yl)phenoxy)benzoyl)piperidin-4-yl) carbonate] | 71.2 | – |
| CCNC(=O)c1nnc(-c2cc(C(C)C)c(O)cc2O)n1-c1ccc2c(ccn2CCC2CCN(C(=O)Oc3ccc4nc5c(c(CC)c4c3)Cn3c-5cc4c(c3=O)COC(=O)[C@]4(O)CC)CC2)c1 [SDC-TRAP-0205, (S)-4,11-diethyl-4-hydroxy-3,14-dioxo-3,4,12,14-tetrahydro-1H-pyrano[3′,4′:6,7]indolizino[1,2-b]quinolin-9-yl 4-(2-(5-(3-(2,4-dihydroxy-5-isopropylphenyl)-5-(ethylcarbamoyl)-4H-1,2,4-triazol-4-yl)-1H-indol-1-yl)ethyl)piperidine-1-carboxylate] | 58.4 | – |
| CCNC(=O)c1nnc(-c2cc(C(C)C)c(O)cc2O)n1-c1ccc(OC2CCN(C(=O)CN(C)C(=O)Oc3ccc4nc5c(c(CC)c4c3)Cn3c-5cc4c(c3=O)COC(=O)[C@]4(O)CC)CC2)cc1 [SDC-TRAP-0206, (S)-4,11-diethyl-4-hydroxy-3,14-dioxo-3,4,12,14-tetrahydro-1H-pyrano[3′,4′:6,7]indolizino[1,2-b]quinolin-9-yl(2-(4-(4-(3-(2,4-dihydroxy-5-isopropylphenyl)-5-(ethylcarbamoyl)-4H-1,2,4-triazol-4-yl)phenoxy)piperidin-1-yl)-2-oxoethyl)(methyl)carbamate] | 68.6 | – |
| CCNC(=O)c1nnc(-c2cc(C(C)C)c(O)cc2O)n1-c1ccc2c(ccn2CCC2CCN(C(=O)O[C@]3(CC)C(=O)OCc4c3cc3n(c4=O)Cc4c-3nc3ccc(O)cc3c4CC)CC2)c1 [SDC-TRAP-0208, (S)-4,11-diethyl-9-hydroxy-3,14-dioxo-3,4,12,14-tetrahydro-1H-pyrano[3′,4′:6,7]indolizino[1,2-b]quinolin-4-yl 4-(2-(5-(3-(2,4-dihydroxy-5-isopropylphenyl)-5-(ethylcarbamoyl)-4H-1,2,4-triazol-4-yl)-1H-indol-1-yl)ethyl)piperidine-1-carboxylate] | 86.1 | – |
| CCNC(=O)c1nnc(-c2cc(C(C)C)c(O)cc2O)n1-c1ccc(OC2CCN(C(=O)[C@@H]3CCCN3C(=O)Oc3ccc4nc5c(c(CC)c4c3)Cn3c-5cc4c(c3=O)COC(=O)[C@]4(O)CC)CC2)cc1 [SDC-TRAP-0209] | 67.1 | – |
| CCNC(=O)c1nnc(-c2cc(C(C)C)c(O)cc2O)n1-c1ccc(OC2CCN(C(=O)C3CCN(C(=O)Oc4ccc5nc6c(c(CC)c5c4)Cn4c-6cc5c(c4=O)COC(=O)[C@]5(O)CC)C(C)C3)CC2)cc1 (stereo partly drawn) [SDC-TRAP-0213, (S)-4,11-diethyl-4-hydroxy-3,14-dioxo-3,4,12,14-tetrahydro-1H-pyrano[3′,4′:6,7]indolizino[1,2-b]quinolin-9-yl 4-(4-(4-(3-(2,4-dihydroxy-5-isopropylphenyl)-5-(ethylcarbamoyl)-4H-1,2,4-triazol-4-yl)phenoxy)piperidine-1-carbonyl)-2-methylpiperidine-1-carboxylate] | 74.7 | – |
| CCc1c2c(nc3ccc(OC(=O)N4CCCCC4C(=O)N4CCC(CCn5ccc6cc(-n7c(O)nnc7-c7cc(C(C)C)c(O)cc7O)ccc65)CC4)cc13)-c1cc3c(c(=O)n1C2)COC(=O)[C@]3(O)CC (stereo partly drawn) [SDC-TRAP-0215, (S)-4,11-diethyl-4-hydroxy-3,14-dioxo-3,4,12,14-tetrahydro-1H-pyrano[3′,4′:6,7]indolizino[1,2-b]quinolin-9-yl 2-(4-(2-(5-(3-(2,4-dihydroxy-5-isopropylphenyl)-5-hydroxy-4H-1,2,4-triazol-4-yl)-1H-indol-1-yl)ethyl)piperidine-1-carbonyl)piperidine-1-carboxylate] | 77.2 | – |
| CCNC(=O)c1nnc(-c2cc(C(C)C)c(O)cc2O)n1-c1ccc(OC2CCN(C(=O)C3CCCCN3C(=O)Oc3ccc4nc5c(c(CC)c4c3)Cn3c-5cc4c(c3=O)COC(=O)[C@]4(O)CC)CC2)cc1 (stereo partly drawn) [SDC-TRAP-0216, (S)-4,11-diethyl-4-hydroxy-3,14-dioxo-3,4,12,14-tetrahydro-1H-pyrano[3′,4′:6,7]indolizino[1,2-b]quinolin-9-yl 2-(4-(4-(3-(2,4-dihydroxy-5-isopropylphenyl)-5-(ethylcarbamoyl)-4H-1,2,4-triazol-4-yl)phenoxy)piperidine-1-carbonyl)piperidine-1-carboxylate] | 67.7 | – |
| CCc1c2c(nc3ccc(OC(=O)N4CCN(Cc5ccc(-n6c(O)nnc6-c6cc(C(C)C)c(O)cc6O)cc5)CC4C)cc13)-c1cc3c(c(=O)n1C2)COC(=O)C3(O)CC (stereo not drawn) [SDC-TRAP-0220, 4,11-diethyl-4-hydroxy-3,14-dioxo-3,4,12,14-tetrahydro-1H-pyrano[3′,4′:6,7]indolizino[1,2-b]quinolin-9-yl 4-(4-(3-(2,4-dihydroxy-5-isopropylphenyl)-5-hydroxy-4H-1,2,4-triazol-4-yl)benzyl)-2-methylpiperazine-1-carboxylate] | 78.3 | – |
| CCNC(=O)c1nnc(-c2cc(C(C)C)c(O)cc2O)n1-c1ccc(CN2CCC(C(=O)N(C)CCCOC(=O)Nc3cccc4c3CN(C3CCC(=O)NC3=O)C4=O)CC2)cc1 (stereo not drawn) [SDC-TRAP-0231, 3-(1-(4-(3-(2,4-dihydroxy-5-isopropylphenyl)-5-(ethylcarbamoyl)-4H-1,2,4-triazol-4-yl)benzyl)-N-methylpiperidine-4-carboxamido)propyl (2-(2,6-dioxopiperidin-3-yl)-1-oxoisoindolin-4-yl)carbamate] | – | % Remaining ([1]; mouse, plasma, 10 μM): 98.3% |
